# Assay results: patent US20210318318A1, “Kinase Activity In Tumors” (Institute For Cancer Research d/b/a The Research Institute …, priority 2018, published 2021)
# “Also recorded” adds a separate entry of the source.
# Experiments:
# AURKB = biological target: T1, AURKB (Homo sapiens, UniProt Q96GD4); test: BDP5290 target profiling (in vitro kinase assays, MIB/MS and MIB-bead selectivity profiling); assay type: binding
# T1 construct: endogenous in cells; host or cells: OVCAR4 cells; OVSAHO and KURAMOCHI lysates
# T1 sequence (Q96GD4 whole entry): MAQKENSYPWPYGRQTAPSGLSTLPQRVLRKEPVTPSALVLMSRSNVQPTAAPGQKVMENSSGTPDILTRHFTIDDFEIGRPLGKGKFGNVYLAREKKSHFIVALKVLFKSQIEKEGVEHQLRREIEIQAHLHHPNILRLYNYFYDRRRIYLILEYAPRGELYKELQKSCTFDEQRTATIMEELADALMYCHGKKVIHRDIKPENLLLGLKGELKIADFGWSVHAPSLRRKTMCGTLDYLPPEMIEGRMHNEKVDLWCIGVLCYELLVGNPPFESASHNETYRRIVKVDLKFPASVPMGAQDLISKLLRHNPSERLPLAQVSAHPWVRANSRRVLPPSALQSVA
# Protocol: (§1) Statistical kinases are identified using Students T-tests with FDR 0.05.
# (§2) MIB-elutions were then analyzed by western blot.
# (§3) Kinome elutions were then analyzed using LC-MS/MS and changes in kinase binding quantified using label free quantitation.
# (§4) Lysates were then incubated with MIBs for 45 minutes at 4° C. (Medard et al., J. Proteome Res., 2015, 14, 1574-1586) and added to gravity flow columns. The MIB preparation protocol was subsequently followed excluding the reduction and alkylation steps. Following methanol/chloroform precipitation, the precipitated pellet was resuspended in 20 μL complete MIBs lysis buffer and 4 μL 6×LSB was added to each sample. Samples were boiled at 100° C. for 5 minutes and subjected to western blot analysis. For the selectivity assay analyzed via LC-MS/MS, 5 mg OVSAHO lysates were preincubated with the same drug concentrations and incubated with MIBs, and the MIB preparation protocol was followed.
# [1] = tested on: FAK1, MLC and Paxillin phosphorylation; FAK1 and CHEK1 protein levels; test: Western blot of signaling in inhibitor-treated HGSOC cells; assay type: cell-based, human; details: HGSOC cells, 0.5, 1 or 3 μM, 48 hours
# Protocol: COV362 cells were treated with 0.5, 1 or 3 μM of A-674563 or SB-772077 for 48 hours and signaling monitored by western blot.
# Samples were harvested in MIB lysis buffer, subjected to SDS-PAGE […] and transferred to PVDF membranes before western blotting with primary antibodies. For pMYPT and pMLC blots, cells were harvested in a buffer containing 1% (w/v) SDS, 50 mM Tris pH 7.5 supplemented with protease and phosphatase inhibitors buffer and were passed through QIAshredder columns (Qiagen, 79654), (Unbekandt et al., Cell Commun. Signal., 2014, 12, 54). For the list of primary antibodies used, see Table 4. Secondary HRP-anti-rabbit and HRP-anti-mouse were obtained from ThermoFisher Scientific. SuperSignal West Pico and Femto Chemiluminescent Substrates (Thermo) were used to visualize blots.
# MRCKB = biological target: T2, MRCKB (Homo sapiens, UniProt Q9Y5S2); test: BDP5290 target profiling (in vitro kinase assays, MIB/MS and MIB-bead selectivity profiling); assay type: binding
# T2 construct: endogenous in cells; host or cells: OVSAHO
# T2 sequence (Q9Y5S2 whole entry): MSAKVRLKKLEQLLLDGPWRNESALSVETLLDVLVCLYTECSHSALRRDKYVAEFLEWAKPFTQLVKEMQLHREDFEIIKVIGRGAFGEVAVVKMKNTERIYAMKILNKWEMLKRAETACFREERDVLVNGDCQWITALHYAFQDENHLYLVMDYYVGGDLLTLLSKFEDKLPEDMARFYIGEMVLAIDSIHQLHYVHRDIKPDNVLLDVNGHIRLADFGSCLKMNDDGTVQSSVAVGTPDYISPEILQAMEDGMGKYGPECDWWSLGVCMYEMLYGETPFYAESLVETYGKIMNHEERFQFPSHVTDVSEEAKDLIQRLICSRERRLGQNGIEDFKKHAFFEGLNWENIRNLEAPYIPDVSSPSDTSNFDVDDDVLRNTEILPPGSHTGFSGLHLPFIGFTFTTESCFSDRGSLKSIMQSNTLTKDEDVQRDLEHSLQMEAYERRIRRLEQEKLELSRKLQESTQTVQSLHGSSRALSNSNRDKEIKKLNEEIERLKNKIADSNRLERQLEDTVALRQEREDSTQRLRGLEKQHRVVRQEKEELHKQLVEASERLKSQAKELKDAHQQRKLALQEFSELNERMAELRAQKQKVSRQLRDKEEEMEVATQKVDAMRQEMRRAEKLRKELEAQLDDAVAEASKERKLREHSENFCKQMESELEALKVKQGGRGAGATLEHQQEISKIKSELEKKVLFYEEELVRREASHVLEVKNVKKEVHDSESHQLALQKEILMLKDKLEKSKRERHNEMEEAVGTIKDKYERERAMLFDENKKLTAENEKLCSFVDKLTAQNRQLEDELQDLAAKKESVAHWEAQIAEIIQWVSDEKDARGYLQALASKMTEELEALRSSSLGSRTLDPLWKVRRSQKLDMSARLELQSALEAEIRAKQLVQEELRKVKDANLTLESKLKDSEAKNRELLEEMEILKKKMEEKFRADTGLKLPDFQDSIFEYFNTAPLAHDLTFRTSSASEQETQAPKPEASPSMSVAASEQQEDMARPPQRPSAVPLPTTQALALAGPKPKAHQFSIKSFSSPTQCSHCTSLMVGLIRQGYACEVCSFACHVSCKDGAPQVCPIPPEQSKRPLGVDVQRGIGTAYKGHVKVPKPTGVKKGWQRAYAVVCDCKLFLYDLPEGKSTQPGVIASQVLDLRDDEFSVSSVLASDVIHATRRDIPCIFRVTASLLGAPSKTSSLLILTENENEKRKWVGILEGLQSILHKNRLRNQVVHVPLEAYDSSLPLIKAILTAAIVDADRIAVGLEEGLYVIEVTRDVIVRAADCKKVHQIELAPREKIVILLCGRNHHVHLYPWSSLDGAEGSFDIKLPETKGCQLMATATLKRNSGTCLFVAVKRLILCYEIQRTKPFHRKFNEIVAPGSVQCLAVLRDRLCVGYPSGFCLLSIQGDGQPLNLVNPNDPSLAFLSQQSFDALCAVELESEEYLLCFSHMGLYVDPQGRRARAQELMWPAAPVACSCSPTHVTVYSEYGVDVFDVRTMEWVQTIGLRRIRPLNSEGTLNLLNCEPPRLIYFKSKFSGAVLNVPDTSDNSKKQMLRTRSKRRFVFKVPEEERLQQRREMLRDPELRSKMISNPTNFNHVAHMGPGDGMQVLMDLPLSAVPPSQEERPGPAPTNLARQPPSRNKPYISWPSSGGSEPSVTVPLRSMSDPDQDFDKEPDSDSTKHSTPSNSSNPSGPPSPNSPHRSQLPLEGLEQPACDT
# Protocol: as §2, §3, §4
# MRCKA [2] = biological target: T3, MRCKA (Homo sapiens, UniProt Q5VT25); details: Unbekandt et al., 2014; cited from earlier work
# T3 sequence (Q5VT25 whole entry): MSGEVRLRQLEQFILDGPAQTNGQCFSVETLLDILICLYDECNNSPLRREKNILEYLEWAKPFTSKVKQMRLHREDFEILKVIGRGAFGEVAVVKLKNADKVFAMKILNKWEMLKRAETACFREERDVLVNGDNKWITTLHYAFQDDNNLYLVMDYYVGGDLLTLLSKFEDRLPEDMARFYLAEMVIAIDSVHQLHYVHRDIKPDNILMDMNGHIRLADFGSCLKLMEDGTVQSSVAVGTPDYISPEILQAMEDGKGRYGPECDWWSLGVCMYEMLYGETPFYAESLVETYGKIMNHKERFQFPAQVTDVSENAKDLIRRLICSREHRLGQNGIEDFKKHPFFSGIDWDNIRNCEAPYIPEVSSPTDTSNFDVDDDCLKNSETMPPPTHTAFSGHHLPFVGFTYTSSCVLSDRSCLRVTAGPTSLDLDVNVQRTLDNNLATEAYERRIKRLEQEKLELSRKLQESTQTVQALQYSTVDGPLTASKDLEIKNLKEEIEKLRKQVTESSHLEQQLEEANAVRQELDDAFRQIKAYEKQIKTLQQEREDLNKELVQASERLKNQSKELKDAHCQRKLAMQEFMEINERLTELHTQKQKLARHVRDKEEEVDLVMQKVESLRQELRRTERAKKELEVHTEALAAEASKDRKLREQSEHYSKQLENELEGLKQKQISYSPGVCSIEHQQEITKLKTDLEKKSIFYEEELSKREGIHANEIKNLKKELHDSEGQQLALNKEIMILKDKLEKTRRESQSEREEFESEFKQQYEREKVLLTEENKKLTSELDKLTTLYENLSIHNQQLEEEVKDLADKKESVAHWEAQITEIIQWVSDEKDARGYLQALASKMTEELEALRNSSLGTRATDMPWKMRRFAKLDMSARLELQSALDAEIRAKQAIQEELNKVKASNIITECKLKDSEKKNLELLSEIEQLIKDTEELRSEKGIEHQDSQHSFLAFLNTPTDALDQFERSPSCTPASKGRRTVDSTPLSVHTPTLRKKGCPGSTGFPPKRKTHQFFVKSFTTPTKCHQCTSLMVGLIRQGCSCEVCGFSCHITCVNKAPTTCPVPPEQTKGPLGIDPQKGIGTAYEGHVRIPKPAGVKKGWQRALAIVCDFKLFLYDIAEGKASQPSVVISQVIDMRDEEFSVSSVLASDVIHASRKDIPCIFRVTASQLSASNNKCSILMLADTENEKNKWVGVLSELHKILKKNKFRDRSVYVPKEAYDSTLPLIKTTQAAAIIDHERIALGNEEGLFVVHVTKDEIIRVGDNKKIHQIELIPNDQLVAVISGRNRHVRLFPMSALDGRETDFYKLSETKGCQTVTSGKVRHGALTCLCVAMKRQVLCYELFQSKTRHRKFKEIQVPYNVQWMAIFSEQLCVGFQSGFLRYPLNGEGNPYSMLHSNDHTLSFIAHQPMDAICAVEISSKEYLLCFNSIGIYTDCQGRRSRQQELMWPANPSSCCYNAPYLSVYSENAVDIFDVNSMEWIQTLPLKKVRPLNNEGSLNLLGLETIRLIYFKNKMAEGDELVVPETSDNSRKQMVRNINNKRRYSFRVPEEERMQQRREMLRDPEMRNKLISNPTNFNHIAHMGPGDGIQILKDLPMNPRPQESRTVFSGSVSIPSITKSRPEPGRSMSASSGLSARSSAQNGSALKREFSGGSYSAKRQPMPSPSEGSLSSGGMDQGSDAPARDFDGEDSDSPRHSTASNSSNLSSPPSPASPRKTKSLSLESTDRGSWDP
# HGSOC cells = test: Cell viability of HGSOC cell line panel (Cell Titer Glo); assay type: cell-based, human
# Protocol: Cells were treated with increasing concentrations of PF-03758309 and cell viability assessed by Cell Titer Glo according to manufacturer's instructions. Data represent the mean of six replicates.
# Cell viability was assessed by Cell Titer Glo according to manufacturing. Data represent the mean of six replicates.
# For short-term growth assays, 3000-5000 cells were plated per well in 96-well plates and allowed to adhere and equilibrate overnight. Drug was added the following morning and after 120 hours of drug treatment, cell viability was assessed using the CellTiter-Glo Luminescent cell viability assay according to manufacturer (Promega). Students t tests were performed for statistical analyses and p values ≤0.05 were considered significant. For colony formation assays, cells were plated in 24-well dishes (3000-5000 cells per well) and incubated overnight before continuous drug treatment for 14 days, with drug and media replaced twice weekly. At the end of treatment, cells were rinsed with PBS and fixed with chilled methanol for 10 minutes at −20° C. Methanol was removed by aspiration, and cells were stained with 0.5% crystal violet in 20% methanol for 20 minutes at room temperature, washed with distilled water, and scanned.
# MRCKA [3] = biological target: T3, MRCKA; test: BDP5290 target profiling (in vitro kinase assays, MIB/MS proteomic analysis of drug binders); assay type: binding; design: endogenous in cells; host or cells: OVSAHO; details: doses <5 μM
# Protocol: PCA plot of MIB-determined SILAC ratios.
# as §1, §4
# [4] = cell lysates incubated with increasing doses for 30 minutes
structure (smiles),measurement,setting,value
O=C(Nc1cn[nH]c1-c1ccccn1)c1nn(C2CCNCC2)cc1Cl [BDP5290],elution of AURKB from MIB beads (western blot),AURKB; [4],elute AURKB
same,off-target activity on AURKB in HGSOC cells,AURKB; doses <5 μM,off-targets
same,"pMLC, pMYPT1, pFAK or total FAK1 or CHEK1 levels",[1],did not reduce
same,elution of MRCKB from MIB beads (western blot),MRCKB; [4],not MRCKB
same,activity against primary target MRCKB in HGSOC cells,MRCKB; doses <5 μM,little activity
same,Ki,MRCKA [2],10 nM
same,potency in HGSOC cells,HGSOC cells; doses <5 μM,minimal potency
same,cell viability of HGSOC cells,"HGSOC cells; increasing concentrations, Cell Titer Glo",inhibiting HGSOC cell viability at higher concentrations; also recorded: minimal effects
same,activity against primary target MRCKA in HGSOC cells,MRCKA [3],little activity
